Earlier results as cited in patent US8333981B2, “Antifungal treatment of nails” (Humco Holding Group, Inc., priority 2007, dated 2012).
Read-outs that look alike come from different tables or passages of the source.

Key:
[1] = not told
[2] = in vitro
[3] = test system: chronic infections of the nails; settings: human, in vivo
[4] = test system: C. albicans (monilia), C. neoformans, B. dermatitidis, A. israelii, H. capsulatum, C. immitis, M. furfur (tinea versicolor) and bacteria
[5] = not told; remark: listed apart in the source
[6] = test system: fungi known to cause onychomycosis
[7] = test system: onychomycosis of fingernails and toenails due to Trichophyton rubrum; settings: after several months of use
[8] = in vivo, po
[9] = human, in vivo

O [water]
average permeability coefficient [1]: 16.5+/−5.9×10(−3) cm hr-1
permeability coefficient (not told): 4.58 ×10⁻⁶ cm/s

Cc1cccc(N(C)C(=S)Oc2ccc3ccccc3c2)c1 [Tolnaftate]
dermatophyte isolates being sensitive (dermatophyte isolates): 47.22%

O=C([O-])CS.[Na+] [Sodium Thioglycolate]
increase in flux compared to the control [2]: 3.8 fold

Clc1ccc(COC(Cn2ccnc2)c2ccc(Cl)cc2Cl)c(Cl)c1 (centres unmarked) [Water-soluble miconazole, miconazole]
dermatophyte isolates being sensitive (dermatophyte isolates): 75%

COC1=CC(=O)C[C@@H](C)[C@]12Oc1c(Cl)c(OC)cc(OC)c1C2=O [Griseofulvin, griseofulvin]
cure rates [3]: poor cure rates
activity against listed organisms [4]: inactive

NC(N)=O [Urea]
drug permeability compared to control [5]: significant increase

Clc1ccccc1C(c1ccccc1)(c1ccccc1)n1ccnc1 [Clotrimazole]
dermatophyte isolates being sensitive (dermatophyte isolates): 30.55%

CC1CCC(C(C)C)C(O)C1 (centres unmarked) [Menthol]
effect on fungi causing onychomycosis / toenail infection [6]: specifically inhibits the growth

Cc1cc(C2CCCCC2)n(O)c(=O)c1 [Ciclopirox, ciclopirox]
cure rate [7]: 14%

CC12CCC(CC1=O)C2(C)C (centres unmarked) [Camphor]
anti-fungal activity (toenail fungus): little or no detectable anti-fungal activity

CCCCCCCCO [n-octanol]
permeability coefficient: 0.075 ×10⁻⁶ cm/s

CCC(C)n1ncn(-c2ccc(N3CCN(c4ccc(OCC5COC(Cn6cncn6)(c6ccc(Cl)cc6Cl)O5)cc4)CC3)cc2)c1=O (centres unmarked) [itraconazole]
total observed incidence of adverse events possibly or directly drug-related [8]: 18.2%

OC(Cn1cncn1)(Cn1cncn1)c1ccc(F)cc1F [fluconazole]
patients who experienced adverse events [9]: Sixteen

Cc1ccc(C(C)C)c(O)c1 [Thymol]
effect on fungi causing onychomycosis / toenail infection [6]: effective

CCO [ethanol]
average permeability coefficient [1]: 5.8+/−3.1×10(−3) cm hr-1
